Assay results: ChEMBL document CHEMBL5230110, “FabI (enoyl acyl carrier protein reductase) - A potential broad spectrum therapeutic target and its inhibitors” (Eur J Med Chem, 2020)
≈ marks a conversion by molar mass, not a printed value.

What was measured:
[1] = Inhibition of Bacillus anthracis enoyl ACP reductase assessed as inhibition of bacterial growth
[2] = system: Bacillus anthracis; test: Antibacterial activity against Bacillus anthracis assessed as reduction in bacterial growth measured after 24 hrs by broth microdilution method; assay type: functional
[3] = system: Staphylococcus aureus; test: Antibacterial activity against methicillin resistant Staphylococcus aureus assessed as reduction in bacterial growth incubated for 12 hrs by microdilution method; assay type: functional
[4] = system: Staphylococcus aureus; test: Bactericidal activity against methicillin-resistant Staphylococcus aureus measured after 24 hrs by sub-culturing; assay type: functional
[5] = system: Staphylococcus aureus; test: Bactericidal activity against methicillin-sensitive Staphylococcus aureus measured after 24 hrs by sub-culturing; assay type: functional
[6] = system: HeLa; test: Cytotoxicity against human HeLa cells assessed as inhibition of cell growth incubated for 48 hrs by CCK8 assay; assay type: functional, cell-based
[7] = Cytotoxicity against mouse MH-S cells; assay type: functional, cell-based
[8] = molecular target: T1, Enoyl-[acyl-carrier-protein] reductase [NADH] FabI (Escherichia coli K-12, UniProt P0AEK4); test: Inhibition of Escherichia coli FabI in the presence of NADH using crotonyl CoA as substrate by measuring NADH consumption rate
T1 sequence (P0AEK4 whole entry): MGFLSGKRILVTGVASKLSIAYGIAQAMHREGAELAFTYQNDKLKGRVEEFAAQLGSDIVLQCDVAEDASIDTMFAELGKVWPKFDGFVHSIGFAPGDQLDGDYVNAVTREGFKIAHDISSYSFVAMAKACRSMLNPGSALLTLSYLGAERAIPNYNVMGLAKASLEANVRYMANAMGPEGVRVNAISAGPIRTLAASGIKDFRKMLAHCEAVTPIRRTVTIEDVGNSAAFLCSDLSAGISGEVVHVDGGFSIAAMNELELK

[9] = system: Staphylococcus aureus; test: Antibacterial activity against methicillin-susceptible Staphylococcus aureus assessed as reduction in bacterial growth; assay type: functional
[10] = system: Staphylococcus aureus; test: Antibacterial activity in Swiss albino mouse model infected with Methicillin-resistant Staphylococcus aureus NRS 382 assessed as reduction in bacterial growth; assay type: functional
[11] = system: Staphylococcus aureus; test: Antibacterial activity in Swiss albino mouse model infected with Methicillin- sensitive Staphylococcus aureus ATCC 29213 assessed as reduction in bacterial growth; assay type: functional
[12] = molecular target: T1, Enoyl-[acyl-carrier-protein] reductase [NADH] FabI; test: Inhibition of Escherichia coli DH5alpha FabI in the presence of NADH using crotonyl CoA as substrate by measuring NADH consumption rate
[13] = molecular target: T2, Enoyl-[acyl-carrier-protein] reductase [NADPH] FabI (Staphylococcus aureus, UniProt Q6GI75); test: Inhibition of Staphylococcus aureus FabI in the presence of NADH using crotonyl CoA as substrate by measuring NADH consumption rate
T2 sequence (Q6GI75 whole entry): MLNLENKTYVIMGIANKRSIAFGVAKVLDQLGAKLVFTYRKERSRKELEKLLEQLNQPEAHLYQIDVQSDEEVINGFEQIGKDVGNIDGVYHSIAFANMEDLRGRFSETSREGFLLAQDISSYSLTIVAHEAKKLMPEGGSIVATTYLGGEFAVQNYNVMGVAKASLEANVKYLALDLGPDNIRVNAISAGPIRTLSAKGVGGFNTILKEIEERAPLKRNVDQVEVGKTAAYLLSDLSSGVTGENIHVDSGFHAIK

[14] = molecular target: T3, Enoyl-[acyl-carrier-protein] reductase [NADH] FabI (Haemophilus influenzae (strain ATCC 51907 / DSM 11121 / KW20 / Rd), UniProt P44432); test: Inhibition of Haemophilus influenzae ATCC 51907 FabI assessed as by measuring NADH consumption rate
T3 sequence (P44432 whole entry): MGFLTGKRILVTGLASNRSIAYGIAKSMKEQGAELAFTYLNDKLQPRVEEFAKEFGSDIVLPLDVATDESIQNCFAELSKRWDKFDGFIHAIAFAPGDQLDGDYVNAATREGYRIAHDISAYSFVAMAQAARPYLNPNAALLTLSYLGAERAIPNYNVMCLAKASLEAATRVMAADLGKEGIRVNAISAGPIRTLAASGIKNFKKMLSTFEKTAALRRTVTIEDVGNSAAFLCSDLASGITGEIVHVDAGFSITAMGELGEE

[15] = system: Staphylococcus epidermidis; test: Antibacterial activity against Methicillin-resistant Staphylococcus epidermidis ATCC 35984 assessed as reduction in bacterial growth; assay type: functional
[16] = system: Staphylococcus aureus; test: In vivo antibacterial activity against methicillin-resistant Staphylococcus aureus infected in murine assessed as reduction in bacterial burden; assay type: functional
[17] = system: Mycobacterium tuberculosis; test: Antimycobacterial activity against Mycobacterium tuberculosis ATCC 25618 extracellular forms assessed as inhibition of microbial growth; assay type: functional
[18] = system: Mycobacterium tuberculosis; test: Antimycobacterial activity against Mycobacterium tuberculosis H37Rv assessed as reduction in bacterial growth incubated for 7 days by dye based assay; assay type: functional; conditions: 168 h, time 7 day
[19] = system: Staphylococcus aureus; test: Antibacterial activity against Staphylococcus aureus assessed as bacterial growth inhibition; assay type: functional
[20] = system: Escherichia coli; test: Antibacterial activity against Escherichia coli assessed as bacterial growth inhibition; assay type: functional
[21] = system: Pseudomonas aeruginosa; test: Antibacterial activity against Pseudomonas aeruginosa assessed as bacterial growth inhibition; assay type: functional
[22] = Cytotoxicity against human HepG2 cells assessed as reduction in cell viability […] incubated for 48 hrs by MTT assay; assay type: toxicity, cell-based
[23] = Cytotoxicity against African green monkey Vero cells assessed as reduction in cell viability by coulter counter method; assay type: toxicity, cell-based; conditions: chlorocebus sabaeus
[24] = Selectivity index, ratio of CC50 for african green monkey Vero cells to CC50 for human HepG2 cells; assay type: toxicity; conditions: Vero cells and HepG2 cells, read-out: Selectivity Index
[25] = molecular target: T4, Enoyl-[acyl-carrier-protein] reductase [NADH] (Mycobacterium tuberculosis, UniProt P9WGR1); test: Inhibition of Mycobacterial tuberculosis ATCC 25618 FabI assessed as measuring NADH consumption rate
T4 sequence (P9WGR1 whole entry): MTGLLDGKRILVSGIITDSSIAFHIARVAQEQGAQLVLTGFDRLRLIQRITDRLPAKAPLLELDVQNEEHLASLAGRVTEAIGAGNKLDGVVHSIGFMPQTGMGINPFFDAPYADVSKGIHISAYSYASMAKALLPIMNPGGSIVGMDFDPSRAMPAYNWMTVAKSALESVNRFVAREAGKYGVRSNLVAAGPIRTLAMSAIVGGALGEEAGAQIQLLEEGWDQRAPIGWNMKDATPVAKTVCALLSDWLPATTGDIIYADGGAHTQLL

[26] = molecular target: T2, Enoyl-[acyl-carrier-protein] reductase [NADPH] FabI; test: Inhibition of Staphylococcus aureus FabI assessed as inhibition of bacterial growth by measuring the NADH consumption rate at 20 mins
[27] = system: Staphylococcus aureus; test: Antibacterial activity against methicillin-sensitive Staphylococcus aureus assessed as reduction in bacterial growth incubated for 12 hrs by microdilution method; assay type: functional
[28] = system: Staphylococcus epidermidis; test: Antibacterial activity against methicillin-sensitive Staphylococcus epidermidis assessed as reduction in bacterial growth incubated for 12 hrs by microdilution method; assay type: functional
[29] = system: Staphylococcus epidermidis; test: Antibacterial activity against methicillin-resistant Staphylococcus epidermidis assessed as reduction in bacterial growth incubated for 12 hrs by microdilution method; assay type: functional
[30] = system: Staphylococcus aureus; test: Antibacterial activity against Staphylococcus aureus ATCC 29213 assessed as bacterial growth inhibition incubated for 24 hrs by broth dilution method; assay type: functional
[31] = molecular target: T2, Enoyl-[acyl-carrier-protein] reductase [NADPH] FabI; test: Inhibition of Staphylococcus aureus ATCC 29213 FabI in the presence of NADH using crotonyl CoA as substrate by measuring NADH consumption rate
[32] = system: Escherichia coli; test: Antibacterial activity against Escherichia coli BAA 2340 assessed as reduction in microbial growth inhibition; assay type: functional
[33] = system: Klebsiella pneumoniae; test: Antibacterial activity against Klebsiella pneumoniae BAA-1705; assay type: functional
[34] = system: Acinetobacter baumannii; test: Antibacterial activity against Acinetobacter baumannii W41979; assay type: functional
[35] = system: Staphylococcus aureus; test: Antibacterial activity against Staphylococcus aureus assessed as inhibition of bacterial growth measured after 24 hrs; assay type: functional
[36] = molecular target: T2, Enoyl-[acyl-carrier-protein] reductase [NADPH] FabI; test: Inhibition of Staphylococcus aureus FabI assessed as inhibition at 10 uM
[37] = system: Staphylococcus aureus; test: Antibacterial activity against […] Staphylococcus aureus ATCC 29213 assessed as reduction in microbial growth inhibition; assay type: functional
[38] = system: Escherichia coli; test: Antibacterial activity against Escherichia coli ATCC 35218 assessed as reduction in microbial growth inhibition; assay type: functional
[39] = system: Staphylococcus aureus; test: Antibacterial activity against Staphylococcus aureus ATCC 29213 assessed as reduction in microbial growth inhibition; assay type: functional
[40] = system: Staphylococcus aureus; test: Antibacterial activity against Methicillin-resistant Staphylococcus aureus 5912 assessed as reduction in microbial growth inhibition; assay type: functional
[41] = system: Staphylococcus aureus; test: Antibacterial activity against Methicillin-resistant Staphylococcus aureus 5749 assessed as reduction in microbial growth inhibition; assay type: functional
[42] = Cytotoxicity against African green monkey Vero cells assessed as reduction in cell viability measured after 72 hrs by coulter counter method; assay type: toxicity, cell-based; conditions: chlorocebus sabaeus
[43] = system: Staphylococcus aureus; test: Antibacterial activity against Staphylococcus aureus ATCC 43300 assessed as reduction in microbial growth inhibition; assay type: functional
[44] = system: Staphylococcus aureus; test: Antibacterial activity against Staphylococcus aureus ATCC 43300 assessed as reduction in microbial growth inhibition in presence of carbenicillin; assay type: functional
[45] = system: Staphylococcus aureus; test: Antibacterial activity against Staphylococcus aureus ATCC 43300 assessed as reduction in microbial growth inhibition in presence of ceftazidime; assay type: functional
[46] = system: Staphylococcus aureus; test: Antibacterial activity against Staphylococcus aureus ATCC 43300 assessed as reduction in microbial growth inhibition in presence of chloramphenicol; assay type: functional
[47] = system: Escherichia coli; test: Antibacterial activity against Escherichia coli assessed as bacterial growth inhibition at 50 uM measured after 24 hrs by 96-wellplate reader assay method; assay type: functional
[48] = system: Mycobacterium tuberculosis; test: Antimycobacterial activity against Mycobacterium tuberculosis H37Rv after 14 days; assay type: functional; conditions: 336 h, time 14 day
[49] = Inhibition of Plasmodium falciparum NF54 HDAC using extract measured after 60 mins by fluorescence assay; conditions: read-out: IC50
[50] = system: Plasmodium falciparum; test: Antimalarial activity against Plasmodium falciparum by LDH assay; assay type: functional, organism-based

## CCCc1ccc(Oc2ccc([N+](=O)[O-])cc2Cl)c(O)c1
[1]
  IC50: 500 nM
[2]
  MIC: 1.9 µg/mL (≈ 6.17 µM)
[3]
  MIC: 0.3 µg/mL (≈ 0.975 µM)
[4]
  MBC: 1.2 µg/mL (≈ 3.9 µM)
[5]
  MBC: 2.9 µg/mL (≈ 9.42 µM)
[6]
  EC50: 41.1 µg/mL (≈ 134 µM)
[7]
  EC50: 22.6 µg/mL (≈ 73.4 µM)

## CCc1cc(O)c(Oc2ccc(C(N)=O)cc2F)cc1F
[8]
  IC50: 58 nM
[3]
  MIC90: 0.12 µg/mL (≈ 0.409 µM)
[9]
  MIC90: 0.03 µg/mL (≈ 0.102 µM)
[10]
  ED50: 19.3 mg/kg/day
[11]
  ED50: 40 mg/kg/day
[12]
  IC50: 58 nM

## Cc1c(CN(C)C(=O)/C=C/c2cnc3c(c2)CCC(=O)N3)c2ccccc2n1C
[13]
  IC50: 130 nM
[14]
  IC50: 390 nM

## Cc1c(C2CN(C(=O)/C=C/c3cnc4c(c3)CCC(=O)N4)C2)oc2ccccc12
[15]
  MIC: 0.5 µg/mL (≈ 1.29 µM)
[16]
  ED50: 0.9 mg/kg

## CC1(C)CCC(Cc2cc(O)c(-c3ccccc3)c(=O)[nH]2)CC1
[17]
  MIC: 0.05 µM

## Cc1ccc(C2=NCC(c3ccc(Oc4ccccc4)c(O)c3)C2)cc1 (configuration not stated)
[18]
  MIC: 18 µM (≈ 6.18 µg/mL)
[19]
  MIC: 9 µM (≈ 3.09 µg/mL)
[20]
  MIC: 18.2 µM (≈ 6.26 µg/mL)
[21]
  MIC: 18 µM (≈ 6.18 µg/mL)
[22]
  CC50 at 48 h: > 596000 nM
[23]
  CC50: > 646000 nM
[24]
  selectivity ratio: > 10

## C=C1C(=O)OC[C@H]1C/C=C(\C)CC(=O)C=C(C)C
[25]
  IC50: 18100 nM

## Cc1c(CN(C)C(=O)/C=C/c2cnc3c(c2)CCC(=O)N3)oc2ccccc12 [AFN-1252]
[26]
  IC50: 14 nM
[27]
  MIC90: ≤ 0.008 µg/mL
[28]
  MIC90: 0.03 µg/mL (≈ 0.0799 µM)
[29]
  MIC90: ≤ 0.008 µg/mL
[30]
  MIC: 0.008 µg/mL (≈ 0.0213 µM)
[31]
  IC50: 9600 nM
[32]
  MIC: > 32 µg/mL
[33]
  MIC: > 32 µg/mL
[34]
  MIC: > 32 µg/mL

## CC(C)=CCc1c(O)ccc(C(=O)[C@H]2[C@@H](c3c(O)cc(-c4cc5ccc(O)cc5o4)cc3O)C=C(C)C[C@@H]2c2ccc(O)cc2O)c1O [CHALCOMORACIN]
[35]
  MIC: 4 µg/mL (≈ 6.17 µM)
[36]
  IC50: 5500 nM

## C[C@@H](Oc1cc(-c2cnn(C3CCNCC3)c2)cnc1N)c1c(Cl)ccc(F)c1Cl [CRIZOTINIB]
[37]
  MIC: 31.2 µM
[38]
  MIC: 250 µM
[39]
  MIC: 125 µM
[40]
  MIC: 15.6 µM
[41]
  MIC: 125 µM
[42]
  CC50 at 72 h: 4230 nM
[43]
  MIC: 7.03 µg/mL
[44]
  MIC: 2 µg/mL
[45]
  MIC: 4 µg/mL
[46]
  MIC: 2 µg/mL

## Oc1cc(Cl)ccc1Oc1ccc(Cl)cc1Cl [TRICLOSAN]
[35]
  MIC: 0.016 µg/mL (≈ 0.0553 µM)
[47]
  MIC: 0.3 µg/mL (≈ 1.04 µM)
[48]
  MIC: 12.5 µg/mL (≈ 43.2 µM)
[49]
  IC50: 73 nM
[50]
  EC50: 0.8 µg/mL (≈ 2.76 µM)
